Columns and labels:
hKv3.1 = target: T1, hKv3.1 (Homo sapiens, UniProt P48547); assay: Automated patch clamp (Patchliner) whole-cell electrophysiology, Kv3.1; type: cell-based; settings: 10 μM compound, CHO-K1 cells stably expressing hKv3.1; for Kv3.1 Activity at 10 μM Potentiation (%): % potentiation of peak current at −10 mV voltage step vs vehicle; for Kv3.1 Activity at 10 μM Voltage Shift (mV): voltage shift of the IV curve at V1/2
T1 construct: expressed in transfected cells
T1 sequence (P48547 1-511): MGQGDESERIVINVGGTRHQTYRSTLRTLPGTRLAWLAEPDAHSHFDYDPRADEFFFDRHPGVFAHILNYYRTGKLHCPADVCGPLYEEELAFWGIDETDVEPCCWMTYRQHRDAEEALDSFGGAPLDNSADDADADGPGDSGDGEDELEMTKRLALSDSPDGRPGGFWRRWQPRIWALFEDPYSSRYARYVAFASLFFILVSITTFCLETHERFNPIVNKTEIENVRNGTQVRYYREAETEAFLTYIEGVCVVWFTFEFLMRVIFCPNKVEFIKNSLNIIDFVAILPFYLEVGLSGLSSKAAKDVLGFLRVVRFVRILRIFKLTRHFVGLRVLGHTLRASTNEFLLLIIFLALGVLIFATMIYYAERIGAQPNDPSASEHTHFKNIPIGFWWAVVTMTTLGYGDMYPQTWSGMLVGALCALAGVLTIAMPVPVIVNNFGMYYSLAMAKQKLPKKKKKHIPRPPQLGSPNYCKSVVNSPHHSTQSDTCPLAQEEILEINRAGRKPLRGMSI
Protocol: (§1) hKv3.1, hKv3.2, hKv3.3, and hKv3.4 were stably expressed in CHO-K1 (Chinese hamster ovary) cells and kept under constant antibiotic selection. For in vitro assays, cells were maintained in appropriate growth medium at 37° C. and 5% CO2 in a humidified incubator.
(§2) hKv3.X expressing cells were plated in T-25 flasks for 3-4 days at 37° C. (no selection antibiotic) prior to use and grown to 80% confluence. Cells were washed twice with PBS (calcium and magnesium free) and detached with a 5-minute treatment at 37° C. with 2-3 mls of Accutase®. Cells were collected, and flask was washed in CHO-SFM II media (Life Technologies Gibco), centrifuged for 2 minutes at ˜110×g and resuspended to obtain a single cell suspension of ˜2-3×10^6 cells/ml.
(§3) The intracellular solution contained the following (in mM): KCl 50, NaCl 10, KF 60, EGTA 20, HEPES 10, adjusted to pH 7.2 with KOH and an osmolarity of 285 mOsmol. Seal enhancer was purchased from Nanion (80 mM NaCl, 3 mM KCl, 10 mM MgCl2, 35 mM CaCl2), 10 mM HEPES, pH7.4, 298 mOsmol. The external solution contained (in mM): NaCl 140, KCl 4, CaCl2) 2, MgCl2 1, HEPES 10, Glucose 5, adjusted to pH7.4 and an osmolarity of 298 mOsmol.
(§4) All compounds were initially tested at 10 uM at a final DMSO concentration of 0.33%. Compounds were dissolved in dimethylsulfoxide (DMSO) at a stock concentration of 30 mM. The compound was further diluted 1:10 to give a stock concentration of 3 mM in DMSO. The final assay solution was diluted 1:300 in External solution to give a final concentration of 10 uM. For the DMSO Control Buffer 30 uL of DMSO was added to 10 mL buffer.
(§5) All electrophysiological recordings were performed at ambient temperature (21-23° C.) using automated patch clamp (Patchliner, Nanion Technologies GmbH) in the whole-cell configuration.
(§6) Cell membrane potentials were held at −80 mV, and currents were evoked by voltage steps (1000 ms duration) from −60 to +60 mV in 10 mV increments. This was performed first with vehicle (0.33% DMSO) and then with 10 uM compound, after a 3-minute incubation period. Data was taken from 4 cells per assay.
(§7) The recordings were analysed and selected using peak current amplitude (>100 pA at the −10 mV voltage step) in the absence of compound to eliminate unsuitable cells from analysis. Peak current amplitude was measured and recorded for each voltage step and data was normalised to the maximum current at +60 mV. The normalised Kv3.x currents following addition of the compound were then compared with the currents recorded prior to compound addition (vehicle control). Positive modulation was determined as % potentiation at the voltage step of −10 mV=[current (cmpd)/current (veh)]*100−100. % potentiation ≥50% was considered acceptable. In addition, voltage shift of the IV curve at V1/2 was measured. V1/2 of ≥−5 mV was also considered acceptable. IV curves were plotted in GraphPad Prism (software version 6.0) and fitted with a Boltzmann equation, where V1/2 is the voltage at half-maximal activation.

hKv3.2 = target: T2, hKv3.2 (Homo sapiens, UniProt Q96PR1); assay: Automated patch clamp (Patchliner) whole-cell electrophysiology, Kv3.2; type: cell-based; settings: 10 μM compound, CHO-K1 cells stably expressing hKv3.2; for activation at 10 µM: % potentiation of peak current at −10 mV voltage step vs vehicle; for Kv3.2 Activity at 10 μM Voltage Shift (mV): voltage shift of the IV curve at V1/2
T2 construct: expressed in transfected cells
T2 sequence (Q96PR1 1-638): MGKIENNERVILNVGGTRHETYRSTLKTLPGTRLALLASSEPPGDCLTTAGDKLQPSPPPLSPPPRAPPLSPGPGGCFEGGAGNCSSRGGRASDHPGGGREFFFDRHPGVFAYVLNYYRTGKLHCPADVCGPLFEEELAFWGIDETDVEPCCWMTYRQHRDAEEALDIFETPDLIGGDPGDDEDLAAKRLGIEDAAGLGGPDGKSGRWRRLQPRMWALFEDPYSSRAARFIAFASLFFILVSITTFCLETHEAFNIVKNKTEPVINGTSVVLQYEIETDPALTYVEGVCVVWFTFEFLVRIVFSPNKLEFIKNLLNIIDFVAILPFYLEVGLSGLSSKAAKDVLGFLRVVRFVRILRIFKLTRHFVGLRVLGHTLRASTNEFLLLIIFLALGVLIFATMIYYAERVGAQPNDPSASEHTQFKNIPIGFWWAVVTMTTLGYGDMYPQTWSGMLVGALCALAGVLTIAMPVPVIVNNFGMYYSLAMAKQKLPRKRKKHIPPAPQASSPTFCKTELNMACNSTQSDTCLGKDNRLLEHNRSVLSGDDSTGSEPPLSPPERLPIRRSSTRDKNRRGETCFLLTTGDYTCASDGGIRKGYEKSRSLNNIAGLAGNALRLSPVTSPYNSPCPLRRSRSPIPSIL
Protocol: as §1, §2, §3, §4, §5, §6, §7

Compound	Kv3.1 Activity at 10 μM Potentiation (%) (hKv3.1)	Kv3.1 Activity at 10 μM Voltage Shift (mV) (hKv3.1)	activation at 10 µM (hKv3.2)	Kv3.2 Activity at 10 μM Voltage Shift (mV) (hKv3.2)
CC[C@@]1(C)NC(=O)N(c2ccnc(Oc3ccc4c(c3)CCC4)c2)C1=O [Example 13, (5R)-5-ethyl-3-(2-indan-5-yloxy-4-pyridyl)-5-methyl-imidazolidine-2,4-dione]	27%	−3.9 mV	48%	−4.48 mV
COc1cc(Oc2cc(N3C(=O)NC4(CCN(C)CC4)C3=O)ccn2)ccc1C [Example 30, 3-[2-(3-methoxy-4-methyl-phenoxy)-4-pyridyl]-8-methyl-1,3,8-triazaspiro[4.5]decane-2,4-dione]	26%	−0.83 mV	-4%	2.06 mV
COc1cc(Oc2cc(N3C(=O)NC4(CCCC4)C3=O)ccn2)ccc1C [Example 33, 3-[2-(3-methoxy-4-methyl-phenoxy)-4-pyridyl]-1,3-diazaspiro[4.4]nonane-2,4-dione]	64%	−5.74 mV	22%	−2.72 mV
COc1cc(Oc2cc(N3C(=O)NC4(CCC4)C3=O)ccn2)ccc1C [Example 34, 7-[2-(3-methoxy-4-methyl-phenoxy)-4-pyridyl]-5,7-diazaspiro[3.4]octane-6,8-dione]	27%	−4.19 mV	25%	−1.25 mV
O=C1NC2(CCCCC2)C(=O)N1c1ccnc(Oc2ccc3c(c2)OCO3)c1 [Example 35, 3-[2-(1,3-benzodioxol-5-yloxy)-4-pyridyl]-1,3-diazaspiro[4.5]decane-2,4-dione]	41%	−3.4 mV	55%	−3.73 mV
O=C1NC2(CCCC2)C(=O)N1c1ccnc(Oc2ccc3c(c2)OC(F)(F)O3)c1 [Example 36, 3-[2-[(2,2-difluoro-1,3-benzodioxol-5-yl)oxy]-4-pyridyl]-1,3-diazaspiro[4.4]nonane-2,4-dione]	85%	−6.21 mV	43%	−4.8 mV
O=C1NC2(CCC2)C(=O)N1c1ccnc(Oc2ccc3c(c2)OC(F)(F)O3)c1 [Example 37, 7-[2-[(2,2-difluoro-1,3-benzodioxol-5-yl)oxy]-4-pyridyl]-5,7-diazaspiro[3.4]octane-6,8-dione]	90%	−5.21 mV	63%	−3.6 mV
COc1cc(Oc2cncc(N3C(=O)NC(C)(C)C3=O)c2)ccc1C [Example 39, 3-[5-(3-methoxy-4-methyl-phenoxy)-3-pyridyl]-5,5-dimethyl-imidazolidine-2,4-dione]	25%	−2.77 mV	31%	−3.78 mV
CC[C@H]1NC(=O)N(c2cc(Oc3ccc(C)c(OC)c3)ccn2)C1=O [Example 41, (5R)-5-ethyl-3-[4-(3-methoxy-4-methyl-phenoxy)-2-pyridyl]imidazolidine-2,4-dione]	67%	−4.46 mV	53%	−3.77 mV
COc1cc(Oc2ccnc(N3C(=O)NC(C)(C)C3=O)c2)ccc1C [Example 44, 3-[4-(3-methoxy-4-methyl-phenoxy)-2-pyridyl]-5,5-dimethyl-imidazolidine-2,4-dione]	45%	−3.03 mV	28%	−2.81 mV
CC[C@@]1(C)NC(=O)N(c2cc(Oc3ccc(C)c(OC)c3)ccn2)C1=O [Example 45, (5R)-5-ethyl-3-[4-(3-methoxy-4-methyl-phenoxy)-2-pyridyl]-5-methyl-imidazolidine-2,4-dione]	19%	−2.36 mV	61%	−6.69 mV
CC[C@H]1NC(=O)N(c2cccc(Oc3ccc(C)c(OC)c3)n2)C1=O [Example 48, (5R)-5-ethyl-3-[6-(3-methoxy-4-methyl-phenoxy)-2-pyridyl]imidazolidine-2,4-dione]	62%	−4.26 mV	61%	−5.3 mV
CC[C@@]1(C)NC(=O)N(c2cccc(Oc3ccc(C)c(OC)c3)n2)C1=O [Example 58, (5R)-5-ethyl-3-[6-(3-methoxy-4-methyl-phenoxy)-2-pyridyl]-5-methyl-imidazolidine-2,4-dione]	35%	−5.32 mV	33%	−2.6 mV

Source: patent US12090146B2, “Substituted-pyridinyl compounds and uses thereof” (Bionomics Limited, priority 2018, dated 2024)
